How the values were obtained:
LUHMES neurons = experiment: Single-cell Ca2+-imaging of LUHMES neurons; type: cell-based, human; settings: single-cell time-lapse fluorescence microscopy
Procedure: For Ca^2+-imaging experiments with a higher resolution on the single-cell level, the Cell Observer (Carl Zeiss Microscopy) was used. The Ca^2+-sensitive dye, the cell handling before the experiment, and the buffer were the same as described above for the experiments with the high-throughput FDSS/µCELL system. The recordings were performed with 2 × 2 binning and a 42 ms exposure time. The compounds were applied after a baseline recording of at least 10 s.
The single-cell Ca^2+-imaging recordings were exported and analyzed in Fiji ImageJ (version 1.52i) to get the average fluorescence signal of each cell. These signals were further analyzed in R, where a threshold detection was performed to detect responding cells. For this, the offset was corrected by subtracting the mean of 20–65% of the fluorescence signal of the pre-application period from the recording, to be robust against spontaneous activity. The threshold was defined as mean + 3 * SD of the negative control recordings, during the detection phase of 6.5 s during the application.

[1] = monoprotic base; average of values; ref CHEMBL and ACD; cited from earlier work
nAChRs on LUHMES neurons = experiment: High-throughput Ca2+-imaging of LUHMES neurons (agonist effect); type: cell-based, human
Procedure: For Ca^2+-imaging, the cells were pre-differentiated for 48 h in cell culture flasks, detached and plated at a density of 20,000 cells and 30,000 cells per well on 0.1% PEI-coated 384-well and 96-well plates (Greiner Bio-One), respectively, for the Ca^2+-imaging. The cells were further differentiated for another 7 days. 50% of the medium was exchanged every 2–3 days.
Ca^2+-imaging was performed using HT Functional Drug Screening System FDSS/µCELL (Hamamatsu Photonics) at nominal 37 °C. The FDSS/µCell system enables the indirect recording of changes of [Ca^2+]i via a Ca^2+-sensitive fluorescent dye. The fluorescence signal of a complete 384-well plate is acquired at once with a high-speed and high-sensitivity digital ImagEM X2 EM-CCD camera (Electron Multiplying Charge-Coupled Device, Hamamatsu Photonics), but with limited spatial resolution. Therefore, the software only determines the mean fluorescence signal of each well rather than of individual cells. For compound application, the integrated dispenser head with 384 pipette tips was used, which can add the test compound to all wells simultaneously. Cells were preincubated with Cal-520 AM (AAT Bioquest) at a concentration of 1 µM for 1 h at 37 °C. For recording, the medium was exchanged by a buffer solution containing [mM]: 135 NaCl, 5 KCl, 0.2 MgCl2, 2.5 CaCl2, 10 HEPES, and 10 D-glucose, pH 7.4. Test compound application was executed after obtaining a 1.5 min baseline recording. Where applicable, a second application was executed 4.5 min after the first application. The total recording never exceeded 8 min.
For the high-throughput Ca^2+-imaging data obtained in LUHMES cells, an offset correction using the FDSS software (version 3.2) was performed. Afterward, the data were exported and further analyzed with scripts written in R (version 3.6.3) (R Core Team [2020]). The concentration–response curves were fitted using a log-logistic model described by Ritz et al. ([2015]), utilizing the R package drc with its function drm() and LL2.2() with the following equation: f(x) = d/[1 + exp(b(log(x) − ẽ))] (Ritz et al. [2015]). The logarithm of the half-maximal effective concentration (logEC50) between 0 and the upper limit (d), which was set to 1, is represented by ẽ, x denotes the concentration, and b stands for the slope parameter (Ritz et al. [2015]). In cases with normalizations to responses induced by other compounds, the function LL2.3() was used with a variable upper limit (d; Ritz et al. [2015]). The same equation was used to determine the half-maximal inhibitory concentration (logIC50). Then the logEC50 and logIC50 values were converted into the pIC50 and pEC50 values, which are the negative logarithms to base 10.

For `NC1=NCCN1Cc1ccc(Cl)nc1` [DN-IMI, desnitro-imidacloprid], the “percentage of responsive cells” value (LUHMES neurons) is listed as ~ 80%, the pKa [1] is listed as 9.6 and the “pEC50 of [Ca2+]i response (peak amplitude)” value (nAChRs on LUHMES neurons; LUHMES neurons, absence of PNU, normalized to the maximal response stimulated by DN-IMI, tested ≤ 100 µM) is listed as 6.6. The “increase of the maximal amplitude by PNU” value (nAChRs on LUHMES neurons; PNU-120596 10 µM) was “around 40%”, the “upper asymptote, % of the maximal response” value (nAChRs on LUHMES neurons; absence of PNU) was 53% and the “relative half maximum (turning point)” value (nAChRs on LUHMES neurons; absence of PNU, normalized to maximal response to DN-IMI in presence of PNU) was 6.8 ± 0.04 -log(M). The “concentrations triggering [Ca2+]i responses” value (nAChRs on LUHMES neurons; human neurons) was no less than 100 nM, the “BMC for 20% response” value (nAChRs on LUHMES neurons; in different systems ([Ca2+]i signaling and single nAChR data)) was 100 to 300 nM and the “relative half maximum (turning point)” value (nAChRs on LUHMES neurons; presence of PNU (10 µM)) was 6.5 ± 0.03 -log(M). For the same compound, the “upper asymptote, % of the maximal response” value (nAChRs on LUHMES neurons; presence of PNU (10 µM)) was 93%.
